In US10941157B2, “Pesticidal compositions and uses thereof” (Gilead Apollo, LLC, priority 2015, dated 2021):
In brackets after ≈: the same amount, converted by molar mass.

What was measured:
[1] = tested on: Collectotrichum graminicola (Cg); test: In vitro pathogen growth inhibition assay, Cg; assay type: cell-based; settings: 48 h, ≥90% inhibition; 48 hours vs 2% DMSO control; read-out: Compound Concentration (ppm) sufficient for ≥90% inhibition of growth, Cg
In short: (§1)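 Value reported is the compound concentration reaching ≥90% growth inhibition, from OD readings at 24 and 48 h after blank subtraction, confirmed visually. Inoculum was spores diluted in 17% V8 medium, except Rs, using 1.5 mm mycelial plugs in ¼ PDB; actual compound concentration corrected via OD600.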

[2] = tested on: Fusarium virguliforme (Fv); test: In vitro pathogen growth inhibition assay, Fv; assay type: cell-based; settings: ≥90% inhibition, 48 hours vs 2% DMSO control, read-out: Compound Concentration (ppm) sufficient for ≥90% inhibition of growth, Fv
In short: (§2)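 Spores in 17% V8 liquid medium, or 1.5 mm Rs mycelial plugs in ¼ PDB, incubated with compound; final concentration checked by OD600 for precipitation. OD readings at 24 and 48 h, blank-subtracted, plus visual ratings; value is concentration giving ≥90% growth inhibition.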

[3] = tested on: Rhizoctonia solani (Rs); test: In vitro pathogen growth inhibition assay, Rs (mycelial plugs); assay type: cell-based; settings: Rhizoctonia solani, 48 h, ≥90% inhibition; mycelial plugs; 48 hours vs 2% DMSO control; read-out: Compound Concentration (ppm) sufficient for ≥90% inhibition of growth, Rs
In short: as §2

[4] = tested on: Fusarium moniliforme (Fm); test: In vitro pathogen growth inhibition assay, Fm; assay type: cell-based; settings: Fusarium verticillioides; ≥90% inhibition; 48 hours vs 2% DMSO control; read-out: Compound Concentration (ppm) sufficient for ≥90% inhibition of growth, Fm
In short: as §1

[5] = tested on: Phytophthora capsici (Pc); test: In vitro pathogen growth inhibition assay, Pc; assay type: cell-based; settings: 48 h, ≥90% inhibition, 48 hours vs 2% DMSO control, read-out: Compound Concentration (ppm) sufficient for ≥90% inhibition of growth, Pc
In short: as §2

[6] = tested on: Fusarium graminearum; assay type: in vivo; settings: spray on flowering Triticum aestivum cv. Samson, inoculated 24 hours after treatment, evaluated 14 days later
[7] = tested on: Botrtyis cinerea (Bc); test: In vitro pathogen growth inhibition assay, Bc; assay type: cell-based; settings: 48 h, ≥90% inhibition; 48 hours vs 2% DMSO control; read-out: Compound Concentration (ppm) sufficient for ≥90% inhibition of growth, Bc
In short: as §1

[8] = tested on: Mycosphaerella graminicola (synthetic Septoria tritici); test: Foliar protection test for wheat septoria leaf blotch control; assay type: in vivo; settings: foliar spray on Triticum aestivum cv. WinterHawk, inoculated 1 hour after treatment, evaluated 16 days later
[9] = tested on: Puccinia triticina; test: Foliar protection test for wheat leaf rust control; assay type: in vivo; settings: foliar application to wheat (Triticum aestivum cv. Winterhawk), evaluated 10 days later
[10] = tested on: Phakopsora pachyrhizi; test: Foliar protection test for Asian soybean rust control; assay type: in vivo; settings: foliar application to soybean (Glycine max AG4832), percent disease area evaluated 14 days later
[11] = tested on: Blumeria graminis f. sp. hordei; test: Foliar protection test for barley powdery mildew control; assay type: in vivo; settings: foliar spray on Hordeum vulgare cv. Perry, inoculated 24 hours after treatment, evaluated 7 days later
In short: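 Protective foliar test: compound atomized onto both leaf surfaces of 6-day-old Hordeum vulgare cv. Perry, followed after 24 h by spore-cloud inoculation from colonized untreated plants. Disease rated on leaves 7 days on, plants held at 20 to 22° C and 70% RH.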

[12] = tested on: Sphaerotheca fuliginea; test: Foliar protection for cucumber powdery mildew control; assay type: in vivo; settings: foliar spray on Cucumis sativus cv. Straight Eight, inoculated 24 hours after treatment, evaluated 7 days later
In short: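 Protective foliar spray on 10-day-old Straight Eight cucumbers, with S. fuliginea spores dusted from infected stock plants 24 h after treatment. Disease developed at 23–27 °C, 60% RH and a 16 h photoperiod. Leaves were rated for mildew growth after 7 days; test rates 10 ppm or below.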

[13] = tested on: Pythium ultimum; test: Seed protectant for soybean seedling disease, P. ultimum; assay type: in vivo; settings: soybean from treated seeds, 0.025 mg/seed, P. ultimum inoculated; for Plant Weight: fresh weight at 14 days; for Improvement in plant weight: percentage of non-inoculated non-treated controls
Description: (§3) The pathogen of Rhizoctonia solani inoculum was grown on sterile sorghum; and the pathogen of Pythium ultimum inoculum was grown on white millet.
(§4) Soybean seeds (Glycine max cv. AG4832) were planted in 2.5-inch square pots containing Berger BM2 germination mix amended with fertilizer (e.g., 14-14-14). Pots with soil were inoculated with the pathogen of R. solani or P. ultimum at time of planting. A hole was pressed into the soil to a depth of about 2 to 3 cm; the inoculum was added to the hole, followed by the seed which was then covered with soil. Two seeds per pot were planted. Plants were grown in a growth chamber at conditions of 20 to 24° C., 14 hour light cycle, 500 uM of light, and 65% humidity. The pots inoculated with P. ultimum were sub-irrigated every day; and the pots inoculated with R. solani were sub-irrigated every other day.
(§5) Seedling emergence was captured at 7 and 14 days after seeding. At 14 days, the top of the plant was removed and fresh weight was recorded. The plant weights from the seeds treated with test compounds (e.g., in formulations) were compared to the ones either from the inoculated non-treated seeds or non-inoculated non-treated seeds. Table 10 lists the results of the R. solani control in soybean upon seed treatment with test compounds, and Table 11 lists the results of the P. ultimum control in soybean upon seed treatment with test compounds, respectively.

[14] = tested on: Septoria tritici (St); test: In vitro pathogen growth inhibition assay, St; assay type: cell-based; settings: Zymoseptoria tritici, 48 h, ≥90% inhibition; 48 hours vs 2% DMSO control; read-out: Compound Concentration (ppm) sufficient for ≥90% inhibition of growth, St
In short: as §1

[15] = tested on: Rhizoctonia solani; test: Seed protectant for soybean seedling disease, R. solani; assay type: in vivo; settings: soybean from treated seeds, 0.025 mg/seed, R. solani inoculated; for Plant Weight: fresh weight at 14 days; for Improvement in plant weight: percentage of non-inoculated non-treated controls
Description: as §3, §4, §5

[16] = tested on: Diplodia maydis (Dm); test: In vitro pathogen growth inhibition assay, Dm; assay type: cell-based; settings: Stenocarpella maydis, 48 h, ≥90% inhibition; 48 hours vs 2% DMSO control; read-out: Compound Concentration (ppm) sufficient for ≥90% inhibition of growth, Dm
In short: as §2

| Structure (SMILES) | IC90 [1] [µg/mL] | IC90 [2] [µg/mL] | IC90 [3] [µg/mL] | IC90 [4] [µg/mL] | IC90 [5] [µg/mL] | Wheat Fusarium Head Blight Control at a compound concentration of 25 ppm or lower [6] | IC90 [7] [µg/mL] | Septoria Leaf Blotch Control at a compound concentration of 25 ppm or lower [8] | Wheat Leaf Rust Control at a compound concentration of 10 ppm or lower [9] | Asian Soybean Rust Control at a compound concentration of 25 ppm or lower [10] | Barley Powdery Mildew Control at a compound concentration of 10 ppm or lower [11] | Cucumber Powdery Mildew Control at a compound concentration of 10 ppm or lower [12] | Plant Weight [13] [g] | Improvement in plant weight [13] [%] | IC90 [14] [µg/mL] | Plant Weight [15] [g] | Improvement in plant weight [15] [%] | IC90 [16] [µg/mL] |
| --- | --- | --- | --- | --- | --- | --- | --- | --- | --- | --- | --- | --- | --- | --- | --- | --- | --- | --- |
| COc1ccc(F)cc1[C@H](Cn1c(=O)n(C(C)(C)C(=O)NC(C)C)c(=O)c2c(C)c(-n3nccn3)sc21)OCCO [Compound I-064, (R)-2-(1-(2-(5-fluoro-2-methoxyphenyl)-2-(2-hydroxyethoxy)ethyl)-5-methyl-2,4-dioxo-6-(2H-1,2,3-triazol-2-yl)-1,4-dihydrothieno[2,3-d]pyrimidin-3 (2H)-yl)-N-isopropyl-2-methylpropanamide] | 0.4 (≈ 0.68 µM) | 0.4 (≈ 0.68 µM) | ≥ 0.08 | 0.08 (≈ 0.136 µM) | ≥ 2 | C (from 25 to 49% control of wheat fusarium head blight) | 2 (≈ 3.4 µM) | A (from 70% to 84% control of wheat septoria leaf blotch) | AA (≥85% control of wheat leaf rust) | A (from 70% to 84% control of Asian soybean rust) | A (from 70% to 84% control of barley powdery mildew) | AA (≥85% control of cucumber powdery mildew) | 5.49 | 88 | ≥ 2 | 6.41 | 79.9 | 0.4 (≈ 0.68 µM) |
| COCCO[C@@H](Cn1c(=O)n(C(C)(C)C(=O)NC(C)C)c(=O)c2c(C)c(-n3nccn3)sc21)c1cc(F)ccc1OC [Compound I-074, (R)-2-(1-(2-(5-fluoro-2-methoxyphenyl)-2-(2-methoxyethoxy)ethyl)-5-methyl-2,4-dioxo-6-(2H-1,2,3-triazol-2-yl)-1,4-dihydrothieno[2,3-d]pyrimidin-3 (2H)-yl)-N-isopropyl-2-methylpropanamide] | 2 (≈ 3.32 µM) | 0.4 (≈ 0.664 µM) | 0.4 (≈ 0.664 µM) | 0.08 (≈ 0.133 µM) | ≥ 50 | C (from 25 to 49% control of wheat fusarium head blight) | 2 (≈ 3.32 µM) | AA (≥85% control of wheat septoria leaf blotch) | A (from 70% to 84% control of wheat leaf rust) | C (from 25 to 49% control of Asian soybean rust) | AA (≥85% control of barley powdery mildew) | AA (≥85% control of cucumber powdery mildew) | 4.33 | 69 | > 50 | 2.06 | 25.7 | 2 (≈ 3.32 µM) |
